Experimental data: the supplement of paper PMC10307832

Tests used:
Experiment in all cases: relative viability (nuclei count vs DMSO), 5 days (fraction); higher = more cells survive
[1] = compound: C[C@@H](N)c1ccc(C(=O)Nc2ccnc3[nH]ccc23)cc1
Procedure, shortened: (§1)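 Hoechst staining, done together with fixation and permeabilisation, marked nuclei for 4× imaging and MetaXpress counting. This followed 5 days without medium change after lung cancer cell lines, kept overnight at 37 °C in 1536-well plates, were pinned with five library-drug doses (not always all listed) spaced by √10 on vehicle-anchored plates. Viability is the ratio of treated-well to vehicle-well nuclei, expressed as a median across plates. Plates passed only at control CV below 25% with at least one doubling.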

[2] = compound: C1CNCCC1C2=CC(=NN2)C3=CC=NC=C3
Procedure, shortened: as §1

Tanzisertib = compound: O[C@H]1CC[C@H](Nc2ncc3nc(Nc4c(F)cc(F)cc4F)n([C@H]4CCOC4)c3n2)CC1 [Tanzisertib]
Procedure, shortened: as §1

[3] = compound: C1CNCCC1C2=CC(=NN2)C3=CC=NC=C3 + COc1cc2c(Oc3ccc(NC(=O)C4(C(=O)Nc5ccc(F)cc5)CC4)cc3F)ccnc2cc1OCCCN1CCOCC1 [Foretinib] (partner 0.25 µM)
Procedure, shortened: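 Relative viability divides the nuclei count in treated wells by that in vehicle wells. Lung cancer cell lines were seeded in 1536-well plates, dosed by pin tool the next day, and fixed and stained after 5 days in one step with final 0.05% Triton X-100, 1% formaldehyde and 1 ug/ml Hoechst. Dosing was a single drug or a fixed anchor-drug dose plus five library-drug doses (not always all listed) in √10 steps, and values are medians of duplicate plates imaged at 4×.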

| Cell Line | relative viability ([1]; 0.04 µM) | relative viability ([1]; 0.1265 µM) | relative viability ([1]; 0.4 µM) | relative viability ([1]; 1.265 µM) | relative viability ([1]; 4 µM) | relative viability ([2]; 0.08 µM) | relative viability ([2]; 0.8 µM) | relative viability ([2]; 2.53 µM) | relative viability ([2]; 8 µM) | relative viability (Tanzisertib; 0.08 µM) | relative viability (Tanzisertib; 0.253 µM) | relative viability (Tanzisertib; 0.8 µM) | relative viability (Tanzisertib; 2.53 µM) | relative viability (Tanzisertib; 8 µM) | relative viability ([3]; first compound 0.08 µM) | relative viability ([3]; first compound 0.8 µM) | relative viability ([3]; first compound 2.53 µM) | relative viability ([3]; first compound 8 µM) |
| --- | --- | --- | --- | --- | --- | --- | --- | --- | --- | --- | --- | --- | --- | --- | --- | --- | --- | --- |
| SK-LU-1 | 0.986 | 1.04 | 1 | 0.886 | 0.833 | 1.04 | 0.972 | 1.2 | 1.02 | 1.19 | 1.05 | 1.02 | 1.1 | 1.01 | 0.813 | 0.946 | 0.951 | 0.885 |
| NCI-H2085 | 0.944 | 0.96 | 0.958 | 0.935 | 0.861 | 1.09 | – | 1.01 | 0.983 | 0.987 | 0.991 | 1.02 | 1.03 | 0.976 | 1.02 | 0.698 | 0.916 | 0.901 |
| NCI-H460 | 0.963 | 0.997 | 1.06 | 0.851 | 0.993 | 0.939 | 1.05 | 0.971 | 1.01 | 0.994 | 0.976 | 0.992 | 0.982 | 0.98 | 0.978 | 1.1 | 1.02 | 1.07 |
| Calu-6 | 1.02 | 1.03 | 1.03 | 0.935 | 0.826 | 0.964 | 1.02 | 1.01 | 0.998 | 1.01 | 1.01 | 1.01 | 1.01 | 0.931 | 0.951 | 0.912 | 0.781 | 0.914 |
| RERF-LC-KJ | 1.02 | 1.01 | 1.16 | 1.08 | 1.02 | 0.868 | 1.01 | 1.03 | 0.943 | 1.13 | 1 | 1.01 | 0.972 | 0.87 | 0.871 | 0.942 | 0.837 | 0.924 |
| LCLC-103H | 1.01 | 0.964 | 0.971 | 0.917 | 0.81 | 1.06 | 0.873 | 0.919 | 0.98 | 1.1 | 1.05 | 1.12 | 1 | 1.04 | 0.777 | 0.695 | 0.72 | 0.883 |
| HCC-15 | 1.03 | 0.971 | 1.02 | 0.623 | 0.908 | 0.987 | 1.1 | 0.98 | 0.939 | 1.16 | 1 | 1.04 | 0.944 | 0.768 | 0.899 | 1.18 | 1.07 | 1.03 |
| H3255 | 1 | 1.21 | 1.16 | 1.01 | 0.925 | 0.934 | 0.952 | 1.2 | 1 | 0.998 | 1.03 | 1.08 | 0.957 | 0.599 | 0.861 | 0.983 | 1.03 | 0.9 |
| NCI-H1792 | 0.948 | 0.735 | 0.945 | 0.649 | 0.827 | 0.945 | 0.903 | 0.976 | 0.95 | 1.03 | 1.07 | 0.939 | 0.899 | 0.606 | – | – | – | – |
| NCI-H1563 | 0.875 | 1.07 | 0.978 | 0.914 | 1.03 | 0.757 | 0.875 | 0.966 | 1.04 | 1.03 | 1.03 | 0.995 | 0.997 | 0.99 | 0.727 | 0.94 | 0.943 | 0.973 |
| NCI-H596 | 1.06 | 0.905 | 0.907 | 0.815 | 0.967 | 1.02 | 0.995 | 0.983 | 0.959 | 0.927 | 1.05 | 0.893 | 0.914 | 0.818 | 0.87 | 0.834 | 0.965 | 0.889 |
| NCI-H2087 | 0.988 | 1.01 | 0.916 | 0.92 | 0.711 | 1 | 1.12 | 0.996 | 0.96 | 1.19 | 0.969 | 1.25 | 1.09 | 0.916 | 0.982 | 1.19 | 1.05 | 1.1 |
| NCI-H661 | 0.907 | 1.02 | 0.974 | 0.891 | 0.87 | 0.993 | 0.964 | 0.96 | 0.988 | 1.01 | 0.997 | 0.964 | 0.944 | 0.964 | 1.1 | 1.05 | 1.01 | 1.02 |
| NCI-H522 | 0.935 | 0.865 | 1.11 | 0.875 | 0.805 | 0.819 | 1.05 | 0.983 | 0.98 | 1.11 | 1.01 | 1.02 | 0.956 | 0.702 | – | – | – | – |
| EMC-BAC-2 | 0.769 | 1.02 | 0.945 | 0.789 | 0.795 | 0.78 | 0.97 | 1.07 | 0.98 | 0.989 | 1.31 | 0.99 | 1.04 | 0.82 | 0.937 | 1.05 | 1.16 | 0.843 |
| NCI-H1355 | 0.961 | 1.01 | 1.12 | 0.909 | 0.986 | 0.955 | 0.957 | 1.08 | 0.977 | 1.08 | 0.978 | 1.09 | 0.96 | 0.911 | 0.906 | 0.938 | 1.05 | 0.923 |
| NCI-H23 | 0.895 | 0.999 | 1.12 | – | 0.826 | 0.866 | 0.988 | 1.26 | 1.14 | 1.18 | 1.01 | 1.06 | 0.998 | 0.43 | 0.766 | 1.19 | 1.25 | 1.11 |
| HCC-44 | 0.95 | 0.988 | 1.03 | 0.927 | 0.941 | 0.999 | 1.05 | 1 | 0.999 | 0.985 | 1.11 | 1.07 | 1.04 | 1.11 | – | – | – | – |
| NCI-H1648 | 1.44 | 1.21 | 1.59 | 1.82 | 1.37 | 0.979 | 0.826 | 0.754 | 0.97 | 0.97 | 1.14 | 0.926 | 0.97 | 0.667 | – | – | – | – |
